{"source": "patent US20130261045A1", "about": "“GREEN TEA POLYPHENOL ALPHA SECRETASE ENHANCERS AND METHODS OF USE” (UNIVERSITY OF SOUTH FLORIDA, priority 2005, published 2013)", "key": {"ADAM17": {"tested_on": "ADAM17", "experiment": "Western blot of ADAM17 in SweAPP N2a cells", "assay_type": "cell-based, murine", "details": "EGCG treatment; data not shown", "procedure": "(§1) Cultured cells were lysed in ice-cold lysis buffer described above, and an aliquot corresponding to 50 μg of total protein was electrophoretically separated using 16.5% Tris-tricine gels. Electrophoresed proteins were then transferred to PVDF membranes (Bio-Rad, Richmond, Calif.), washed in ddH2O, and blocked for 1 h at ambient temperature in Tris-buffered saline (TBS; Bio-Rad) containing 5% (w/v) non-fat dry milk. After blocking, membranes were hybridized for 1 h at ambient temperature with various primary antibodies. Membranes were then washed 3 times for 5 min each in ddH2O and incubated for 1 h at ambient temperature with the appropriate HRP-conjugated secondary antibody (1:1,000, Pierce Biotechnology, Inc. Rockford, Ill.). All antibodies were diluted in TBS containing 5% (w/v) of non-fat dry milk. Blots were developed using the luminol reagent (Pierce Biotechnology). Densitometric analysis was done using the Fluor-S MultiImager™ with Quantity One™ software (Bio-Rad). For examining sAPP-α, conditioned medium was collected following treatment according to a modified protocol from Chen and Fernandez (Chen et al., 2004). sAPP-α was extracted using 3K Nanosep centrifugal filters (Pall Life Sciences, Ann Arbor, Mich.) and protein concentrate was prepared for the aforementioned electrophoresis. […]"}, "ADAM10 [1]": {"tested_on": "ADAM10", "experiment": "Western blot of ADAM10 maturation in N9 microglial cells", "assay_type": "cell-based", "details": "various doses, 8 h", "method": "(§2) Cultured cells were lysed in ice-cold lysis buffer described above, and an aliquot corresponding to 50 μg of total protein was electrophoretically separated using 16.5% Tris-tricine gels. Electrophoresed proteins were then transferred to PVDF membranes (Bio-Rad, Richmond, Calif.), washed in ddH2O, and blocked for 1 h at ambient temperature in Tris-buffered saline (TBS; Bio-Rad) containing 5% (w/v) non-fat dry milk. After blocking, membranes were hybridized for 1 h at ambient temperature with various primary antibodies. Membranes were then washed 3 times for 5 min each in ddH2O and incubated for 1 h at ambient temperature with the appropriate HRP-conjugated secondary antibody (1:1,000, Pierce Biotechnology, Inc. Rockford, Ill.). All antibodies were diluted in TBS containing 5% (w/v) of non-fat dry milk. Blots were developed using the luminol reagent (Pierce Biotechnology). Densitometric analysis was done using the Fluor-S MultiImager™ with Quantity One™ software (Bio-Rad). […] Antibodies used for Western blot included: antibody 369 (which recognizes the carboxyl-terminus of APP; 1:1,500), clone 22C11 (against the amino-terminus of APP; 1:1,500), clone 6E10 (against amino acids 1-17 of Aβ; 1:1,500), anti-ADAM9 (1:500), and antibodies against ADAM10 (1:500), ADAM17 (1:500) or actin (1:1,500; as an internal reference control)."}, "ADAM10 [2]": {"tested_on": "ADAM10", "experiment": "Western blot of ADAM10 maturation in parental (non-transfected) N2a cells", "assay_type": "cell-based, murine", "details": "various doses, 8 h", "method": "as §2"}, "α-secretase": {"tested_on": "α-secretase", "experiment": "α-secretase cleavage activity kit, lysates of APP-transfected N2a cells", "assay_type": "cell-based, murine", "details": "first 1 to 3 hours after EGCG"}, "APP α-secretase cleavage": {"tested_on": "APP α-secretase cleavage", "experiment": "Western blot of APP CTFs and sAPP-α in SweAPP N2a cells (Examples 6-7, with or without siRNA knock-down)", "assay_type": "cell-based, murine", "details": "various doses of EGCG, 8 h", "excerpt": "FIGS. 8A-8H show EGCG-induced ADAM10 activation correlates with APP α-secretase cleavage in vitro. […] Data were represented as % change relative to control (medium from cultured SweAPP N2a cells or primary neuronal cells without any treatment).\nFIGS. 10A-10C show ADAM10 is required for EGCG-induced APP α-secretase cleavage. […] In FIG. 10A, cell lysates were subjected to WB for APP CTFs and ADAM10 cleavage analyses. […] In FIG. 10B, cell culture media were subjected to WB for sAPP-α secretion. […] In FIG. 10C, cell culture media were subjected to Aβ ELISA. Data are represented as % change relative to control (medium from cultured SweAPP N2a cells without any treatment). […] Data are representative of three independent experiments.\nCultured cells were lysed in ice-cold lysis buffer described above, and an aliquot corresponding to 50 μg of total protein was electrophoretically separated using 16.5% Tris-tricine gels. […] Densitometric analysis was done using the Fluor-S MultiImager™ with Quantity One™ software (Bio-Rad). […]\nSweAPP N2a cells were transfected with siRNA pre-designed to knock-down murine ADAM9, 10, or 17 mRNA (Dharmacon Inc. Lafayette, Colo.). […] Transfection efficiency was determined to be greater than 80% (data not shown) using no-RISC siGLOW (fluorescently labeled non-functional siRNA; Dharmacon). […] The cells were evaluated by Western blot analysis for expression of ADAM9, 10 or 17. […]"}, "ADAM9": {"tested_on": "ADAM9", "experiment": "Western blot of ADAM9 in SweAPP N2a cells", "assay_type": "cell-based, murine", "details": "EGCG treatment; data not shown", "procedure": "as §1"}, "ADAM10 [3]": {"tested_on": "ADAM10", "experiment": "Western blot of ADAM10 maturation in primary murine microglial cultures", "assay_type": "cell-based", "details": "various doses, 8 h", "method": "Cultured cells were lysed in ice-cold lysis buffer described above, and an aliquot corresponding to 50 μg of total protein was electrophoretically separated using 16.5% Tris-tricine gels. Electrophoresed proteins were then transferred to PVDF membranes (Bio-Rad, Richmond, Calif.), washed in ddH2O, and blocked for 1 h at ambient temperature in Tris-buffered saline (TBS; Bio-Rad) containing 5% (w/v) non-fat dry milk. After blocking, membranes were hybridized for 1 h at ambient temperature with various primary antibodies. Membranes were then washed 3 times for 5 min each in ddH2O and incubated for 1 h at ambient temperature with the appropriate HRP-conjugated secondary antibody (1:1,000, Pierce Biotechnology, Inc. Rockford, Ill.). All antibodies were diluted in TBS containing 5% (w/v) of non-fat dry milk. Blots were developed using the luminol reagent (Pierce Biotechnology). Densitometric analysis was done using the Fluor-S MultiImager™ with Quantity One™ software (Bio-Rad). […] Antibodies used for Western blot included: antibody 369 (which recognizes the carboxyl-terminus of APP; 1:1,500), clone 22C11 (against the amino-terminus of APP; 1:1,500), clone 6E10 (against amino acids 1-17 of Aβ; 1:1,500), anti-ADAM9 (1:500), and antibodies against ADAM10 (1:500), ADAM17 (1:500) or actin (1:1,500; as an internal reference control). […]"}}}
{"smiles": "O=C(O[C@@H]1Cc2c(O)cc(O)cc2O[C@@H]1c1cc(O)c(O)c(O)c1)c1cc(O)c(O)c(O)c1", "note": "[EGCG, (−)-epigallocatechin-3-gallate]", "values": [{"measurement": "ADAM17 expression", "setting": "ADAM17", "value": "no significant effects"}, {"measurement": "ADAM10 maturation", "setting": "ADAM10 [1]", "value": "dose-dependently increased"}, {"measurement": "ADAM10 maturation", "setting": "ADAM10 [2]", "value": "dose-dependently increased"}, {"measurement": "α-secretase cleavage activity in cell lysate", "setting": "α-secretase", "value": "markedly elevated"}, {"measurement": "sAPP-α", "setting": "APP α-secretase cleavage", "value": "dose-dependent increases"}, {"measurement": "α-CTF", "setting": "APP α-secretase cleavage", "value": "dose-dependent increases"}, {"measurement": "ADAM9 expression", "setting": "ADAM9", "value": "no significant effects"}, {"measurement": "mature ADAM10", "setting": "ADAM10 [3]", "value": "dose-dependent increases"}]}
